“Also recorded” adds a separate entry of the source.
Key:
HIVBaL = assay: HIV replication in primary human macrophages, HIV p24 ELISA; format: cell-based, Human immunodeficiency virus-1 (HIV); conditions: 100 μM oATP; according to d.p.i.; N=3
Excerpt: (§1) Monocyte isolation and macrophage culture: Human monocytes were isolated from leukopaks obtained from the New York Blood Center. Peripheral blood mononuclear cells (PBMCs) were isolated by differential centrifugation using a Ficoll gradient (GE Healthcare, Piscataway, N.J.) and CD14 positive cells were isolated from PBMCs using CD14 monoclonal antibodies that were then bound by magnetic nanoparticles and separated using a magnetic field (Stem Cell Technologies, Vancouver, BC, Canada). Isolated CD14 positive cells were cultured adherently for 6 days in the presence of 10 ng/ml macrophage-colony stimulating factor (PeproTech, Rocky Hill, N.J.) in RPMI 1640 with 10% FBS, 5% human AB serum, 1% P/S, and 10 mM HEPES to differentiate the cells into macrophages.
(§2) HIV replication: After 6 days in culture, macrophages in 48-well plates at a density of 10^5 cells per well were inoculated with 2-20 ng/ml HIVADA, 2 ng/ml HIVYU-2, or 0.2 ng/ml HIVBaL for 24 hours in the presence or absence of purinergic receptor inhibitors. 5 wells were inoculated per condition. After 24 hours, cells were washed with PBS and then cultured with media. Supernatants were collected and medium was changed every 24 hours until 7 days post inoculation (d.p.i.). When the inhibitors oATP, A-740003, MRS 2179, NF 279, BBG, or suramin, were used, they were added when the medium was changed every 24 hours. Viral replication was analyzed by HIV p24 ELISA (Advanced Bioscience Laboratories, Kensington, Md.) according to the manufacturer's instructions

HIVADA [1] = assay: as above; format: cell-based, Human immunodeficiency virus-1 (HIV)
Excerpt: as §1, §2

HIVYU-2 = assay: as above; format: cell-based, Human immunodeficiency virus-1 (HIV); conditions: 100 μM oATP; every d.p.i.; N=3
Excerpt: as §1, §2

[2] = system: β-lactamase containing HIVBaL; assay: HIV Entry Assay (β-lactamase / CCF2-AM) in primary human macrophages; format: cell-based, Human immunodeficiency virus-1 (HIV); conditions: 100 μM; 4 hours; MOI 0.001-0.01; oATP N=5, others N=3
Experimental: HIV Entry Assay: Primary human macrophages were cultured in black 96-well plates with a clear bottom (Corning Inc., Corning, N.Y.) at a density of 43,000 cells per well. After 7-8 days in culture, cells were inoculated with β-lactamase containing HIVBaL at a multiplicity of infection (MOI) of 0.01, 0.005, or 0.001 in the presence or absence of the purinergic receptor inhibitors oATP, NF 279, A-740003, or MRS 2179 for 4 hours. Beta-lactamase containing HIVBaL was generated as described previously (27). Briefly, HEK-293T cells were transfected using calcium phosphate with two plasmids, one containing the HIVBaL genome, pWT/BaL (NIH repository), the other containing β-lactamase fused to REV vpr, pMM310 (NIH repository). Cells were transfected for 16 hours and then supernatant was collected 24 and 48 hours following transfection. […] Viral stocks were generated by sucrose gradient purification of the transfection supernatants.
Alter viral inoculation of primary human macrophages, cells were washed with phenol red-free DMEM (Gibco) then loaded with CCF2-AM for 6 hours at room temperature using the GeneBLAzer In Vivo Detection Kit (Invitrogen, Carlsbad, Calif.). CCF2-AM fluoresces green due to an internal fluorescence resonance energy transfer, but when cleaved by β-lactamase, this interaction is lost and the molecule fluoresces blue. Cells were imaged using an Olympus IX70 with a Plan 10×/0.25 air objective lens. Images were collected at room temperature through an Olympus E-620LS camera attached to the microscope through an OM adapter MF-1. Images were collected directly onto a memory card and there was no image processing following image collection. Images were collected for 8 fields in 4 separate wells per condition and percentage of cells positive for viral entry was determined by counting the number of blue cells (cells that virus had entered) as compared to the total number of blue and green cells.

purinergic receptors = conditions: in vivo mouse model; reference 99; cited from earlier work
HIVADA [3] = assay: Immunofluorescence, percentage of HIV p24 positive macrophages; format: cell-based, Human immunodeficiency virus-1 (HIV); conditions: 100 μM oATP, 7 d.p.i.
Experimental: Immunofluorescence: After 6 days in culture, macrophages cultured in 35 mm MatTek dishes at a density of 10^6 cells per dish were inoculated with 20 ng/ml HIVADA for 24 hours in the presence or absence of oATP. Two MatTek dishes were inoculated per condition. After 24 hours, cells were washed with PBS and cultured with media. Fresh oATP was added and the medium was changed every 24 hours until 7 d.p.i. Cells were then fixed using cold 70% ethanol for 20 minutes. Cells were washed with PBS and blocked using 0.9% fish gelatin, 50 μM EDTA. 1% horse serum, and 1% globulin-free albumin. The following primary antibodies were used: mouse monoclonal HIV p24 antibody from Abeam at a 1:50 dilution (Cambridge, Mass.) or mouse myeloma IgG1 (Sigma) as a negative control. Secondary antibody staining was with anti-mouse IgG F(ab)′2 fragment conjugated to FITC (Sigma). Actin was stained using Texas Red-X conjugated to phalloidin (Invitrogen, Eugene, Oreg.). ProLong Gold antifade reagent containing DAPI was added to all cells to stain for nuclei. Cells were imaged using a Zeiss AxioObserver.D1 with an LD Plan-Neofluar 20×/0.4 air objective lens. […] Images for 15 fields per condition were analyzed and percentage of p24 positive cells determined by counting number of nuclei in cells with green cytoplasmic staining.

Macrophages = assay: Cell viability of macrophages, live/dead assay; format: cell-based; conditions: 100 μM, 24 hours
Excerpt: Cells were imaged using a Zeiss AxioObserver.D1 with an LD Plan-Neofluar 20×/0.4 air objective lens. Images were collected at room temperature through a Zeiss AxioCam MRm camera using Axiovision software.

Nc1ncnc2c1ncn2[C@@H](C=O)O[C@@H](C=O)COP(=O)(O)OP(=O)(O)OP(=O)(O)O [oATP, oxidized ATP]
HIVBaL replication reduced relative to HIV only (HIVBaL): 89-97%
effect on HIVADA p24 production (HIVADA [1]; 1 μM oATP, N=5): no effect
inhibition of HIVADA p24 production relative to HIV only (HIVADA [1]; 10 μM oATP, depending upon d.p.i., N=5): 50-85%
HIVADA replication reduced (HIV p24) relative to HIV only (HIVADA [1]; 100 μM oATP, depending upon the d.p.i., up to 7 d.p.i., N=10): 92-99%
HIVYU-2 replication reduced relative to HIV only (HIVYU-2): over 99%
reduction in viral entry (percentage of cells with viral entry) relative to HIV only [2]: 57%
onset of diabetes and inflammatory bowel disease (purinergic receptors): can prevent the onset of diabetes and inflammatory bowel disease
decrease in the percentage of HIV p24 positive cells (HIVADA [3]; 20 ng/ml HIVADA, N=3): 92%
multinucleated giant cells in cultures (HIVADA [3]; HIVADA, compared to HIV infected cultures): very few multinucleated giant cells were detected
cell viability (live/dead assay) (Macrophages): None of the antagonist caused any decrease in cell viability; also recorded: did not reduce cell viability

From US9540646B2, “Cellular targets for HIV infection” (priority 2012, dated 2017)
